The values below come from US11234960B2, “Compositions and methods for improving mitochondrial function and treating neurodegenerative diseases and cognitive disorders” (Amazentis SA, priority 2010, dated 2022).

Assay type in all cases: in vivo
In test [1] the test system is maternally separated mice. In words: Forced swim test in early-life stress mice. As to conditions: early-life stressed mice, 90 mg/kg/day in food (FIG. 41). Here is the method: (§1) At postnatal day 1, pups were culled to have 6 pups per mother. From postnatal day 1 to 14, unpredictable maternal separation (MS) of a period of 3 hours daily was carried out. Maternal separation was performed at random times (from 8 am to 2 pm) to avoid the habituation of the mother to the procedure. The protocol consisted of removing pups from their mother to another cage at room temperature for a 3 hour period, after which the pups were returned to their original nest. These groups are denoted as early-life stress in the figures. A control group of dam/pups was left undisturbed and is denoted in the figures as normal.
(§2) One week after maternal separation mice were separated into two groups. One control group received the standard mouse chow diet (Untreated), while the other group received the ellagitannin punicalagin admixed into the food and designed to deliver a dose of 90 mg/kg/day to the mice. Treatment with the diet began 1 week after the termination of the maternal separation treatment. […]
Animals were considered to be engaged in swimming and mobile if there was a clear displacement of the body. […] Animal behavior was recorded over a 6-minute test period using a camera and a mirror behind the cylinder. The first 2 minutes and the last 4 minutes of the swimming were analyzed separately for mouse swimming activity. […]

Test [2] concerns maternally separated mice. In words: Morris water maze in early-life stress mice. To be noted: early-life stressed mice, 90 mg/kg/day (FIG. 45). The procedure: as §1, §2
The Morris water maze behavioral assay was employed to assess the cognitive impact of maternal separation. In this assay, cognitive learning is measured by the ability of a mouse to locate a hidden platform in a pool of opaque water. […] Escape latency to reach the platform was measured by a video tracking system.

The test system of test [3] is normal mice. Put plainly: Rotarod assay in normal mice. As to conditions: 90 mg/kg/day in diet for 3 months, four trials (FIG. 48). The procedure: Beginning at 3 months of age, mice were fed either a standard control diet such as AIN-93G or a diet containing punicalagin to deliver a dose of 90 mg/kg/day for a period of 3 months.
To examine the effect of pomegranate derived compounds on muscle performance and motor skills, mice were tested on the rotarod behavioral assay. The rotarod apparatus consists of a rod with a diameter of 2 cm with 5 compartments, 5 cm wide. A mouse is placed on a rotating rod which is started at an initial speed of 5 rpm. The rod speed is gradually accelerated at a rate of 8 rpm/min. The latency to fall was measured with a cutoff time of 300 seconds. Mice were tested for four trials. The latency to fall is a measure of the muscle performance and motor skills of the mice, with a better performance reflected by a longer latency to fall. Both control untreated and punicalagin-treated mice were tested. […] Punicaligin-treated mice were able to remain on the rotarod for a longer time and at higher speeds compared to untreated mice during sequential trial periods (FIG. 48).
On the technique in general: In the rotarod test animals must keep their balance on a rotating rod.

The subject of test [4] is C. elegans strain SJ4103. In words: Mitochondrial GFP reporter in muscle of C. elegans strain SJ4103. As to conditions: 50 μM from eggs, GFP monitored after one day of adulthood (FIG. 26). The procedure:
C. elegans strains were cultured at 20° C. on nematode growth media agar plates seeded with HT115 bacteria and containing 50 μM urolithin A or a corresponding concentration of DMSO as a control. […]. The strains used were the SJ4103 (zcIs14[myo-3::GFP(mit)]), which is a stable transgenic line expressing a mitochondrially localized green fluorescent protein (GFP) with a cleavable mitochondrial import signal peptide under the control of the specific body wall muscle promoter myo-3. GFP expression and quantification was carried out according to the protocol previously described (Durieux et al., 2011). Worms were treated with 50 μM urolithin A from eggs, and GFP was monitored after one day of adulthood. Fluorimetric assays were performed using a Victor X4 multilabel plate reader (Perkin-Elmer Life Science). Eighty worms were picked at random (20 worms per well of a black-walled 96-well plate) and each well was read four times and averaged.

For `O=C1O[C@H]2[C@@H]3OC(=O)c4cc(O)c(O)c(O)c4-c4c(O)c(O)c5oc(=O)c6c(c(O)c(O)c7oc(=O)c4c5c76)-c4c(cc(O)c(O)c4O)C(=O)OC[C@H]3OC(O)[C@@H]2OC(=O)c2cc(O)c(O)c(O)c2-c2c1cc(O)c(O)c2O` (mixture of isomers) [punicalagin, 2,3 hexahydroxydiphenoyl-4,6-gallagylglucose], in test [1], the “immobility / swimming activity in forced swim test” value is reported as “increased swimming activity to levels seen in non-stressed mice”. Besides, in test [2], the “escape latency in Morris water maze (cognitive learning)” value is “reducing the time to learn the location of the hidden platform to levels observed in normal non-stressed mice”. The “muscle performance and motor skills, latency to fall from rotarod” value in test [3] was “significantly improve muscle performance and motor skills”.

Turning to `O=c1oc2cc(O)ccc2c2ccc(O)cc12` [urolithin A, 3,8-Dihydroxydibenzo-α-pyrone], in test [4], the “expression of mitochondrial GFP-reporter driven by myo-3 promoter (fluorescence)” value is listed as “induced the expression of the mitochondrial GFP-reporter”.
